Data reported in patent US6610744B2, “Methods of treatment with compounds having RARα receptor specific or selective activity” (Allergan, Inc., priority 1995, dated 2003).
≈ marks a conversion by molar mass, not a printed value.

Tests used:
[1] = tested on: RPMI 8226 cells (malignant myeloma); test: RPMI 8226 cell culture assay (3H-thymidine incorporation); assay type: cell-based, human; details: FIG. 1; low concentration range 10^−12 to approximately 10^−9
Experimental: All trans-retinoic acid (t-RA) (Sigma Chemicals Co., St. Louis, Mo.) was stored at −70° C. Prior to each experiment the compound was dissolved in 100% ethanol at 1 mM and diluted in culture medium immediately before use. All experiments were performed in subdued light. Controls were assayed using the same concentration of ethanol as present in the experimental plates and this concentration of diluent had no effect in either assay.
The cell lines, RPMI 8226, ME-180 and AML-193 were obtained from the American Type Culture Collection (ATCC, Rockville, Md.). RPMI 8226 is a human hematopoietic cell line obtained from the peripheral blood of a patient with multiple myeloma. The cells resemble the lymphoblastoid cells of other human lymphocyte cell lines and secrete […] light chains of immunoglobulin. RPMI-8226 cells are grown in RPMI medium (Gibco) supplemented with 10% fetal bovine serum, glutamine and antibiotics. The cells were maintained as suspension cultures grown at 37° C. in a humidified atmosphere of 5% CO2 in air. The cells were diluted to a concentration of 1×10^5/ml twice a week.
The method used for determination of the incorporation of radiolabeled thymidine was adapted from the procedure described by Shrivastav et al. RPMI-8226 cells were plated in a 96 well round bottom microtiter plate (Costar) at a density of 1,000 cells/well. To appropriate wells, retinoid test compounds were added at the final concentrations indicated for a final volume of 150 μl/well. The plates were incubated for 96 hours at 37° C. in a humidified atmosphere of 5% CO2 in air. Subsequently, 1 μCi of [5′-^3H]-thymidine (Amersham, U.K. 43 Ci/mmol specific activity) in 25 μl culture medium was added to each well and the cells were incubated for an additional 6 hours. The cultures were further processed as described below.
The cell lines were then processed as follows: the cellular DNA was precipitated with 10% trichloroacetic acid onto glass fiber filter mats using a SKATRON multi-well cell harvester (Skatron Instruments, Sterling Va.). Radioactivity incorporated into DNA, as a direct measurement of cell growth, was measured by liquid scintillation counting. The numbers represent the mean disintegrations per minute of incorporated thymidine from triplicate wells±SEM.

[2] = tested on: limb bud mesenchymal cells; test: Chondrogenesis suppression bioassay (teratogenic potency); assay type: cell-based; details: read-out: IC50 (50% inhibition of chondrogenesis); mouse limb bud spot cultures, 96 hours after plating; greater IC50 signifies lesser teratogenecity
Experimental: High-density “spot” cultures of limb bud mesenchymal cells are used to compare the ability of various concentrations of test drugs to suppress chondrogenic differentiation as a bioassay. Forelimb buds of mouse embryos on day 12 of gestation (54±2 somites) are dissociated in a trypsin-EDTA solution, and the resultant single-cell suspension is plated as 20-μl spots (200,000 cells/spot) on plastic culture dishes. Retinoid concentrations ranging from 0.3 ng/ml to 3 μg/ml (1 nM−10 μM) are added to the culture medium (Eagle's MEM±10% fetal bovine serum, GIBCO) 24 hours after initial plating. Control cultures receive only the vehicle (ethanol, concentration≦1% by vol); Retinoic acid is used as a positive control in another set of cultures.
The cultures are terminated 96 hours after plating, at which time the medium is removed and the cells are fixed for 1 hour in 10% formalin containing 0.5% cetylpyridinium chloride. The cultures are rinsed in acetic acid and stained for 1 hour in 0.5% Alcian blue solution at pH 1.0, differentiated in 3% acetic acid, and then dehydrated in ethanol and scored for chondrogenesis under the microscope. An absence or reduction in the number of cartilage nodules in stained cultures as compared with control cultures is taken as a measure of suppression of chondrogenesis. The number of cartilage nodules stained in the whole spot, mean number of nodules, and standard deviations are calculated for four replicate cultures per treatment. […] The IC50 values are expressed in nanogram per mililiter (ng/ml) units. An IC50 value of greater concentration in this assay signifies lesser teratogenecity.

[3] = tested on: AML-193 cells (acute monocytic leukemia); test: AML 193 cell culture assay (3H-thymidine incorporation); assay type: cell-based, human; details: FIG. 3; low concentrations
Outline: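 t-RA from 1 mM ethanol stock, diluted in medium; ethanol-matched controls, subdued light. AML-193 cells (GM-CSF/insulin-dependent) at 1,000 cells/well incubated 96 h at 37 °C with retinoids, then 6 h with 1 μCi [3H]-thymidine; TCA-precipitated DNA counted by scintillation, mean dpm of triplicates ±SEM.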

[4] = tested on: retinal pigment epithelium (RPE) cells; test: Primary RPE culture proliferation; assay type: cell-based, human; details: FIG. 5; 10^−10 to 10^−6 M, six days treatment
Experimental: Primary cultures of human retinal pigment epithelium (RPE) were established from eyes as previously described, (Campochiaro et al., Invest. Opthal & Vis. Sci. 32:65-72 (1991)). 5×10^4 Cells were plated in 16-mm wells of 24-well multiwell plates in Dulbecco's modified Eagle's medium (DMEM Gibco) containing 10% fetal bovine serum (FBS). Cells were treated with ethanol alone (control), ATRA (10^−10 to 10^−6 M) in ethanol, and Compound 42 (10^−10 to 10^−6 M) in ethanol. Cells were fed with fresh media containing the appropriate concentrations of these compounds every two days for a total of six days treatment. Cells were removed from the plates via treatment with trypsin and the number of cells were counted with an electronic cell counter.

ovarian tumor cells = test: EDR assay on cells from solid tumors of patients; assay type: cell-based, human; details: FIG. 4; tumors from 4 patients, four days with drug
Experimental: Freshly resected solid tumor biopsies were received within 24 hours of surgery. Species were processed for assay after retaining a portion of the tumor for paraffin embedding and histopathologic confirmation of specimen viability and tissue diagnosis. The remaining specimen was dissociated into small fragments using sterile scissors. The small tissue fragments were then exposed to collagenase and DNAase for 2 hours with mixing a CO2 incubator in order to release the tumor cells from the connective tissue stroma. The resulting cell suspension was washed, and cell counts determined from a cytospin preparation. Tumor cells were resuspended at 40,000 cells per ml in 0.3% agarose in RMPI 1640 supplemented with 15% FCS, glutamine and antibiotics, and 0.5 ml were plated into each well of a 24 well plate over 0.5 ml layer of 0.5% agarose. These culture conditions prevent cell adherence, thereby allowing only transformed cells to proliferate. Additionally, the cells grow into three dimensional spheroids, recapitulating their in vivo morphology.
Retinoid drugs were added 24 hours after plating to insure specimen reequilibration to a growth environment after the rigors of transport and processing. […] After the agarose-cell suspension was liquefied at 90° C., cells were harvested onto glass fiber filters, which were counted in 5 ml scintillation fluid using a Beckman 6500 liquid scintillation counter. […]

CC1=C(/C=C/C(C)=C/C=C/C(C)=C/C(=O)O)C(C)(C)CCC1 [ATRA, all trans retinoic acid, reference compound]
growth of RPMI 8226 cells at low concentration [1]: facilitates growth | IC50 [2]: 0.055 µg/mL (≈ 0.183 µM) | AML-193 cell proliferation at low concentrations [3]: promotes cell proliferation | RPE cell proliferation [4]: dose dependent decrease in RPE cell proliferation

CC1(C)CCC(C)(C)c2cc(C(=O)Nc3ccc(C(=O)O)c(F)c3)ccc21 [Compound 2]
ovarian tumor cell proliferation (ovarian tumor cells): inhibits this tumor cell proliferation in a concentration dependent manner
